According to US20110223597A1 (priority 2010, published 2011):

Assays:
[1] = test system: UGT1A4 (overall OLZ glucuronidation); assay: in vitro; conditions: human, pH 7.5
UGT1A4 = molecular target: T1, UGT1A4 (Homo sapiens, UniProt P22310); assay: in vitro; conditions: homogenates from UGT1A4-over-expressing cells, pH 7.5, probe OLZ (olanzapine), 25 μM
T1 sequence (P22310 29-534): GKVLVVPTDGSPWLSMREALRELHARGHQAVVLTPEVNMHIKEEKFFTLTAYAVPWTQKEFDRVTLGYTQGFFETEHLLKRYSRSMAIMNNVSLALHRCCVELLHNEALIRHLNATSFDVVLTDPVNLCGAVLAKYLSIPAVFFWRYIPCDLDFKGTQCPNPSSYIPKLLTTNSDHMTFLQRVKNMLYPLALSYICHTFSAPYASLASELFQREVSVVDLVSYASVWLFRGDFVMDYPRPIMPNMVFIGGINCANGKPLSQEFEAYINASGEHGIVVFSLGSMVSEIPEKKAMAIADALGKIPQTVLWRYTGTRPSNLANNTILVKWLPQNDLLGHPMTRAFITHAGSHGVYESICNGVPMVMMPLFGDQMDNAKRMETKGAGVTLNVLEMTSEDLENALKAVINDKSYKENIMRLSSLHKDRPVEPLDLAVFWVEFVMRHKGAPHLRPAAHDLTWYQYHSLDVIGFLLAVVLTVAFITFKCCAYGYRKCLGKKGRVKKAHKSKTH
Procedure: Glucuronidation assays were performed in 50 mmol/L Tris buffer (pH 7.5), 10 mmol/L MgCl2, 4 mmol/L UDP-glucuronic acid (UDPGA), and 7.8 μmol/L to 4 mmol/L of substrate at 37° C. in a water bath for 2 h. […] Reactions were terminated by the addition of the same volume of cold acetonitrile as the initial reaction volume. Reactions were centrifuged at 13,000 g for 10 min at 4° C. and supernatants were collected. […] Elution consisted of a gradient elution starting with 87.5% buffer B (100% acetonitrile) and 17.5% buffer A [5 mmol/L ammonium acetate (pH 6.0)] for 5 min, a linear gradient to 90% buffer B over 1 min and held for 2 min, then a linear gradient back to initial conditions and held for 2 min for a total run time of 10 min. The flow rate was maintained at 0.5 mL/min. […] 1, 1997; 25(0:81-93, and by mass spectrometry as described herein. As controls, glucuronidation assays were performed using HLM as a positive control for glucuronidation activity and untransfected HEK293 cell homogenate protein as a negative control for glucuronidation activity. Four independent experiments were performed for kinetic analysis of UGT-over-expressing cell homogenates, with all assays within each experiment performed in duplicate; two independent experiments were performed for rate determination assays and three for kinetic analysis for HLM specimens.

[2] = test system: UGTs 1A1, 1A3, 1A6, 1A7, 1A8, 1A9, 1A10, 2B4, 2B7, 2B11, 2B15 or 2B17; assay: Screening of OLZ glucuronidation activity by homogenates of HEK293 cells over-expressing other wild-type UGTs; format: in vitro ADME, human; conditions: up to 250 μg of UGT-over-expressing cell homogenate

Question: How did the inhibition at 2 h, 2000 μM [1] turn out when `Nc1nnc(-c2cccc(Cl)c2Cl)c(N)n1` [LTG, lamotrigine] was run?
Answer: 12 ± 3.4%

Question: And the inhibition at 2 h, 2000 μM (UGT1A4)?
Answer: 41%

Question: `Cc1cc2c(s1)Nc1ccccc1N=C2N1CCN(C)CC1` [OLZ, Olanzapine] was tested. Which “glucuronidation activity against OLZ in UGT screening” value [2] did it give?
Answer: None of the other UGTs screened
